Reference: patent US4029671A, “3-[(5-nitro-2-imidazolyl)pyrazol-5-yl]oxamic acid derivatives” (priority 1976, dated 1977)
Converted amounts (≈) assume the structure as drawn. Structures can show the parent of a compound that is named as a salt.

Tests used:
Type in all cases: cell-based
[1] = system: Bacteroides fragilis sp. fragilis 1877; assay: Agar dilution susceptibility of anaerobic bacteria (Chart 1); details: agar dilution, 37° C., Bacteroides fragilis sp. fragilis 1877; for MIC: Bacteroides fragilis, 24 h, read-out: 24 Hr. MIC
[2] = system: Bacteroides fragilis sp. fragilis 104; assay: as above; details: 24 h; agar dilution, 37° C.; Bacteroides fragilis sp. fragilis 104; read-out: 24 Hr. MIC
[3] = system: Bacteroides fragilis sp. fragilis 111; assay: as above; details: agar dilution, 37° C., Bacteroides fragilis sp. fragilis 111; for MIC: Bacteroides fragilis, 24 h, read-out: 24 Hr. MIC
[4] = system: Bacteroides fragilis sp. fragilis 1470; assay: as above; details: agar dilution, 37° C., Bacteroides fragilis sp. fragilis 1470; for MIC: Bacteroides fragilis, 24 h, read-out: 24 Hr. MIC
[5] = system: Bacteroides fragilis sp. fragilis 2; assay: as above; details: Bacteroides fragilis, 24 h, agar dilution, 37° C.; Bacteroides fragilis sp. fragilis 2; read-out: 24 Hr. MIC
[6] = system: Bacteroides fragilis sp. fragilis 9; assay: as above; details: agar dilution, 37° C., Bacteroides fragilis sp. fragilis 9; for MIC: Bacteroides fragilis, 24 h, read-out: 24 Hr. MIC
[7] = system: Bacteroides fragilis sp. fragilis 62; assay: as above; details: agar dilution, 37° C., Bacteroides fragilis sp. fragilis 62; for MIC: Bacteroides fragilis, 24 h, read-out: 24 Hr. MIC
[8] = system: Bacteroides fragilis sp. fragilis 1874; assay: as above; details: agar dilution, 37° C., Bacteroides fragilis sp. fragilis 1874; for MIC: Bacteroides fragilis, 24 h, read-out: 24 Hr. MIC
[9] = system: Bacteroides fragilis sp. thetaiotaomicron 1900A; assay: as above; details: agar dilution, 37° C., Bacteroides fragilis sp. thetaiotaomicron 1900A; for MIC: Bacteroides fragilis, 24 h, read-out: 24 Hr. MIC
[10] = system: Clostridium perfringens 81; assay: microbe, parasite or virus in culture; details: for MIC: Clostridium perfringens, 81, 24 h, read-out: 24 Hr. MIC, agar dilution, 37° C.; for 24 Hr. MIC: agar dilution, 37° C.
[11] = system: Clostridium septicum 1128; assay: Agar dilution susceptibility of anaerobic bacteria (Chart 1); details: 37° C.; for MIC: Clostridium septicum, 1128, 24 h
Experimental: The susceptibility of anaerobic bacteria, both gram positive and gram negative, to a representative number of the novel compounds of this application was determined using the agar dilution method. The bacteria used were isolated from patients hospitalized at the Indiana Univerisity Medical Center. The isolates were identified in the anaerobe laboratory of the Medical Center by the criteria established by Dowell et al., Laboratory Methods in Anaerobic Bacteriology. Public Health Serv. Publ. NO. 1803 (1968) [Center for Disease Control, Atlanta, Ga.]; and by Smith et al., The Pathogenic Anaerobic Bacteria, pages 96- 136 (1968) [Charles C. Thomas, Publisher, Springfield, Ill.]. All the organisms were maintained in chopped meat glucose medium (Scott Labs) at room temperature.
The method used for the agar dilution tests was based on the studies of Sutter et al., Antimicrob. Ag. Chemother. 3, 188-193 (1973). The strains of anaerobic bacteria were grown in 16×× 120 mm. tubes for 16 to 18 hours in Thioglycolate medium without indicator-- 135C (Becton, Dickinson and Co.), to which was added 5 mcg. of hemin per milliliter prior to autoclaving, plus 1 mg. of sodium bicarbonate and 0.1 mcg. of filter-sterilized menadione per milliliter after autoclaving. The strains were adjusted to the turbidity of the No. 1 McFarland standard in Thioglycolate medium without indicator-- 135C containing an additional 0.13 percent Bacto-agar (Difco). Each strain was then applied to the surface of the petri plate (100 mm× 15 mm.) by means of a replicator.
For the agar dilution studies, two-fold dilutions of the test compounds were prepared in deionized water to which was then added laked sheep blood and filter-sterilized menadione so the concentrations after the agar dilution were 5 percent and 10 mcg./ml. respectively. An equal volume of double strength Brucella agar (Becton, Dickinson and Co.) was mixed with each dilution in a water bath held at 50° C. and then poured onto the petri dishes.
All of the procedures were done inside a plastic glove box, except for the incubation of the growth tubes and the pouring of the plates. After the plates hardened, they were put inside the glove box for a minimum of 2 hours before they were inoculated. Generally, the glove box procedures of Aranki et al., Applied Microbiology 17, 568-576 (1969), were followed, but the following modifications were used. Dry materials were introduced into the glove box by evacuating the lock to 28 inches of mercury and filling once with nitrogen gas, followed by evacuating in the same manner and filling with an 80 percent nitrogen plus 10 percent CO2 plus 10 percent hydrogen gas mixture. Liquid media and agar plates were introduced into the glove box by evacuating the lock to 10 inches of mercury and filling with gas four times. The nitrogen gas was used to fill the lock for the first two cycles of evacuation, with the gas mixture described above used for the final two fillings.
All the plates were incubated at 37° C. in Gas Pak jars (Becton, Dickinson and Co.) containing palladium-coated alumina catalysts (reactivated after each use). The results of the agar dilution tests were read after about 24 hours of incubation. The minimum inhibitory concentration (MIC) was recorded as the lowest concentration of test compound at which there was no growth.
The test compounds are identified by the number of the example describing their preparation. The antibiotics clindamycin (C), and erythromycin (E) were also run simultaneously with the novel compounds of this application,for comparison purposes, and the results are included in Chart 1 below.

[12] = system: Bacteroides fragilis sp. fragilis 1936B; assay: as above; details: agar dilution, 37° C., Bacteroides fragilis sp. fragilis 1936B; for MIC: Bacteroides fragilis, 24 h, read-out: 24 Hr. MIC
[13] = system: Bacteroides melaninogenicus 1856/28; assay: as above; details: agar dilution, 37° C., Bacteroides melaninogenicus 1856/28; for MIC: Prevotella intermedia, 1856/28, 24 h, read-out: 24 Hr. MIC
[14] = system: Bacteroides melaninogenicus 2736; assay: as above; details: agar dilution, 37° C., Bacteroides melaninogenicus 2736; for MIC: 2736, 24 h, read-out: 24 Hr. MIC
[15] = system: Bacteroides vulgatis 1211; assay: as above; details: agar dilution, 37° C., Bacteroides vulgatis 1211; for MIC: Bacteroides, 1211, 24 h, read-out: 24 Hr. MIC
[16] = system: Bacteroides corrodens 1874; assay: as above; details: agar dilution, 37° C., Bacteroides corrodens 1874; for MIC: Eikenella corrodens, 1874, 24 h, read-out: 24 Hr. MIC
[17] = system: Fusobacterium symbiosum 1470; assay: as above; details: agar dilution, 37° C., Fusobacterium symbiosum 1470; for MIC: Fusobacterium, 1470, 24 h, read-out: 24 Hr. MIC

| Compound | MIC [1] | MIC [2] | MIC [3] | MIC [4] | MIC [5] | MIC [6] | MIC [7] | MIC [8] | MIC [9] | MIC [10] | MIC [11] | MIC [12] | MIC [13] | MIC [14] | MIC [15] | MIC [16] | MIC [17] | 24 Hr. MIC [11] | 24 Hr. MIC [12] | 24 Hr. MIC [15] | other results |
| --- | --- | --- | --- | --- | --- | --- | --- | --- | --- | --- | --- | --- | --- | --- | --- | --- | --- | --- | --- | --- | --- |
| CCC[C@@H]1C[C@@H](C(=O)N[C@@H]([C@H]2O[C@H](SC)[C@H](O)[C@@H](O)[C@H]2O)[C@H](C)Cl)N(C)C1 [C, clindamycin, reference compound] | 0.25 µg/mL (≈ 0.588 µM) | 0.125 µg/mL (≈ 0.294 µM) | 1 µg/mL (≈ 2.35 µM) | 0.25 µg/mL (≈ 0.588 µM) | 0.25 µg/mL (≈ 0.588 µM) | 0.125 µg/mL (≈ 0.294 µM) | 0.25 µg/mL (≈ 0.588 µM) | ≤ 0.06 µg/mL | 4 µg/mL (≈ 9.41 µM) | 4 µg/mL (≈ 9.41 µM) | 8 µg/mL (≈ 18.8 µM) | ≤ 0.5 µg/mL | ≤ 0.5 µg/mL | ≤ 0.5 µg/mL | ≤ 0.5 µg/mL | ≤ 0.5 µg/mL | ≤ 0.5 µg/mL | – | – | – | – |
| CCOC(=O)C(=O)Nc1c(C#N)c(-c2ncc([N+](=O)[O-])n2C)nn1C [Example 1, N-[4-Cyano-1-methyl-3-(1-methyl-5-nitroimidazol-2-yl)pyrazol-5-yl]oxamic acid, ethyl ester] | 0.25 µg/mL (≈ 0.72 µM) | 0.25 µg/mL (≈ 0.72 µM) | 0.125 µg/mL (≈ 0.36 µM) | 0.125 µg/mL (≈ 0.36 µM) | 0.25 µg/mL (≈ 0.72 µM) | 0.25 µg/mL (≈ 0.72 µM) | – | – | 0.25 µg/mL (≈ 0.72 µM) | 0.5 µg/mL (≈ 1.44 µM) | – | ≤ 0.25 µg/mL | – | ≤ 0.25 µg/mL | ≤ 0.25 µg/mL | ≤ 0.25 µg/mL | ≤ 0.25 µg/mL | > 128 µg/mL | – | – | 24 Hr. MIC [7]: 0.25 µg/mL; 24 Hr. MIC [8]: 0.06 µg/mL; 24 Hr. MIC [13]: 16 µg/mL |
| CCOC(=O)C(=O)Nc1c(C#N)c(-c2ncc([N+](=O)[O-])n2C)nn1C [Example 2, N-[4-Cyano-1-methyl-3-(1-methyl-5-nitroimidazol-2-yl)pyrazol-5-yl]oxamic acid, ethyl ester, sodium salt] | – | – | – | – | – | – | – | – | – | – | – | – | – | – | – | – | – | – | – | – | 24 Hr. MIC ([1]; sodium salt): 0.5 µg/mL; 24 Hr. MIC ([3]; sodium salt): 0.25 µg/mL; 24 Hr. MIC ([4]; sodium salt): 0.25 µg/mL; 24 Hr. MIC ([6]; sodium salt): 0.5 µg/mL; 24 Hr. MIC ([7]; sodium salt): 0.125 µg/mL; 24 Hr. MIC ([8]; sodium salt): 0.25 µg/mL; 24 Hr. MIC ([9]; sodium salt): 0.25 µg/mL; 24 Hr. MIC ([10]; sodium salt): ≤ 0.25 µg/mL; 24 Hr. MIC ([11]; sodium salt): > 64 µg/mL; 24 Hr. MIC ([12]; sodium salt): ≤ 0.25 µg/mL; 24 Hr. MIC ([13]; sodium salt): 16 µg/mL; 24 Hr. MIC ([14]; sodium salt): 0.5 µg/mL; 24 Hr. MIC ([15]; sodium salt): ≤ 0.25 µg/mL; 24 Hr. MIC ([16]; sodium salt): ≤ 0.25 µg/mL; 24 Hr. MIC ([17]; sodium salt): ≤ 0.25 µg/mL |
| Cn1nc(-c2ncc([N+](=O)[O-])n2C)c(C#N)c1NC(=O)C(=O)NN [Example 6, 5-[4-Cyano-1-methyl-3-(1-methyl-5-nitroimidazol-2-yl)pyrazol5-yl]semioxamazide] | 0.5 µg/mL (≈ 1.5 µM) | 0.25 µg/mL (≈ 0.75 µM) | 0.25 µg/mL (≈ 0.75 µM) | 0.25 µg/mL (≈ 0.75 µM) | 0.25 µg/mL (≈ 0.75 µM) | 0.25 µg/mL (≈ 0.75 µM) | 0.5 µg/mL (≈ 1.5 µM) | 0.25 µg/mL (≈ 0.75 µM) | 0.25 µg/mL (≈ 0.75 µM) | – | > 128 µg/mL | – | 8 µg/mL (≈ 24 µM) | ≤ 0.25 µg/mL | – | – | ≤ 0.25 µg/mL | – | ≤ 0.25 µg/mL | ≤ 0.25 µg/mL | 24 Hr. MIC [10]: 0.5 µg/mL; 24 Hr. MIC [16]: ≤ 0.25 µg/mL |
| Cn1nc(-c2ncc([N+](=O)[O-])n2C)c(C#N)c1NC(=O)C(=O)c1ccccc1 [Example 10, N-[4-cyano-1-methyl-3-(1-methyl-5-nitroimidazol-2-yl)pyrazol-5-yl]-2-phenylglyoxylamide] | ≤ 0.03 µg/mL | ≤ 0.03 µg/mL | ≤ 0.03 µg/mL | ≤ 0.03 µg/mL | ≤ 0.03 µg/mL | ≤ 0.03 µg/mL | ≤ 0.03 µg/mL | ≤ 0.03 µg/mL | – | 1 µg/mL (≈ 2.64 µM) | – | – | 32 µg/mL (≈ 84.4 µM) | – | – | – | ≤ 0.03 µg/mL | 1.0 µg/mL | 2 µg/mL | 4 µg/mL | 24 Hr. MIC [9]: ≤ 0.03 µg/mL; 24 Hr. MIC [14]: 2 µg/mL; 24 Hr. MIC [16]: 1.0 µg/mL |
